According to patent publication US20080039431A1, “Method of improving plant growth by reducing viral infections” (priority 2006, published 2008):
Values joined by “and” are separate entries in the source; they are usually repeats but may differ in a detail not shown here. Equal values may be shown once.

What was measured:
[1] = test system: tomato spotted wilt virus (TSWV); assay: Replicated peanut field trials, in-furrow treatment at planting (Examples 1-3); format: in vivo, peanut (Arachis hypogaea L.); details: for TSWV Incidence (number of symptomatic feet of row per 60 foot plot): 8 replicate plots
Procedure: Cultivation—Three replicated field trials were conducted at the Bayer CropScience research farm in Tifton, Ga., using standard commercial peanut practices. Prior to planting, fields were flag staked to establish 8 replications per treatment per trial of two rows by 30 ft long (6 ft by 30 ft, 60 row feet total) each. On May 19, two cultivars of peanut (Arachis hypogaea L.), Georgia Green (two fields, Examples 1 and 2) and Carver (one field, Example 3) were planted using a two-row Monosem air planter. During the planting passes a tractor mounted compressed air system was used to spray the in-furrow treatment into the furrow before row closure. All other plots were not treated at planting. Single field passes were used to plant entire fields to ensure a uniform planting depth. Treatments— • Treated—Plots received an in-furrow application of prothioconazole at planting at a rate of 200 g prothioconazole/Ha. Through the season these plots received foliar fungicide maintenance using standard commercial fungicides including chlorothalonil and tebuconazole. • Untreated—Due to standard practices in peanut pesticide testing, each treated plot always included untreated peanut plots adjacent to the treated plots that serve as spacer rows. […] Untreated plots in Examples 1 and 3 received foliar maintenance applications to control foliar diseases. […] TSWV rating—Plots were examined periodically following emergence for differences in appearance. In certain instances, (August 19 data for example), TSWV incidence is determined as the number of row feet with TSWV symptoms (chlorosis and stunting) which was determined for the two treatments.

[2] = test system: tomato spotted wilt virus (TSWV); assay: Non-replicated GLP peanut residue trial, Tifton, Ga. (Example 4); format: in vivo; details: for Percent row feet infected with TSWV: rated August 22, 525 row ft plot
Procedure: Cultivation—A non-replicated GLP (good laboratory practice) peanut residue trial was in progress at the Tifton, Ga., location using similar cultivation methods as in Examples 1-3. The planting and in-furrow treatment date was May 26. Prothioconazole treated seed were prepared two weeks prior on May 12. Plots were 525 row ft. Treatments— • Untreated—no in-furrow treatment, chlorothalonil maintenance only for foliar diseases. • Seed treatment, in-furrow, and foliar—prothioconazole seed treatment@10 g active ingredient/100 kg seed plus prothioconazole applied in-furrow@200 g active ingredient/Ha followed by prothioconazole@100 g active ingredient/Ha on July 21, August 4, and August 18. • Foliar only—prothioconazole@200 g active ingredient/Ha on July 21, August 4, and August 18. TSWV rating—For TSWV incidence determination, on August 22 the number of row feet per plot with TSWV symptoms (chlorosis and stunting) was determined for the three treatments. Statistics cannot be run on single-replication trials.

[3] = test system: tomato spotted wilt virus (TSWV); assay: Non-replicated GLP peanut residue trial, Molino, Fla. (Example 5); format: in vivo; details: for Percent row feet infected with TSWV: Georgia Green, rated August 23, 160 row ft plot
Procedure: Cultivation—A non-replicated GLP peanut residue trial was conducted in Molino, Fla., using similar methods as in Examples 3 and 4. The cultivar used was Georgia Green. Prothioconazole treated seed were prepared on May 12. Plots were 160 row ft. in length. Treatments— • Untreated—no in-furrow treatment, chlorothalonil maintenance only for foliar diseases. • Seed treatment, in-furrow, and foliar—prothioconazole seed treatment@10 g active ingredient/100 kg seed plus prothioconazole applied in-furrow@200 g active ingredient/Ha followed by a program of three chlorothalonil applications and four applications of prothioconazole@100 g active ingredient/Ha. • Foliar only—A program of three chlorothalonil applications and four applications of prothioconazole@200 g active ingredient/Ha. TSWV rating—For TSWV incidence determination, on August 23 the number of row feet per plot with TSWV symptoms (chlorosis and stunting) was determined for the three treatments. Statistics cannot be run on single replication trials.

[4] = test system: tomato spotted wilt virus (TSWV); assay: Bell pepper drench trial (Example 7); format: in vivo, bell pepper (Capsicum annum L.); details: for Percent control of incidence of TSWV in bell peppers: Abbott's formula; for Percent incidence TSWV in bell peppers: drench, prothioconazole 0.0084 g ai/plant, imidacloprid 0.01 g/plant
Procedure: Cultivation—A trial on bell pepper (Capsicum annum L.) was initiated in Molino, Fla. to see if drenches of prothioconazole alone and in combination with the insecticide imidacloprid could control TSWV in pepper. Bell pepper plants were transplanted on April 11 into 9.1 meter plots with three replications as in Example 6. Treatments were applied as a drench in 40 ml water per plant (7 days after transplanting) on April 18 as in Example 6.
Treatments— • Untreated—no in-furrow treatment. • Imidacloprid—imidacloprid@0.01 g imidacloprid/plant. • Prothioconazole—prothioconazole@0.0084 g prothioconazole/plant. • Prothioconazole+Imidacloprid—prothioconazole@0.0084 g active ingredient/plant+imidacloprid@0.01 g imidacloprid/plant.
TSWV rating—For TSWV incidence determination, the percentage of plants with TSWV symptoms (chlorosis and stunting) was determined for the four treatments at 21, 29, 38, and 47 days after treatment as in Example 6.
Synergy formula—The Colby formula for proof of synergy was used in Example 7 as in Example 6.

[5] = test system: tomato spotted wilt virus (TSWV); assay: Tobacco drench / broadcast spray trial (Example 8); format: in vivo, tobacco (Nicotiana tabacum); details: prothioconazole 0.0084 g ai/plant, imidacloprid 0.01 g/plant (drench), acibenzolar-S-methyl 2.47 g ai/Ha broadcast spray
Excerpt: Cultivation—A trial on tobacco (Nicotiana tabacum) was initiated in Molino, Fla., to see if drenches of prothioconazole alone and in combination with the insecticide imidacloprid could control TSWV in tobacco. Plants of cultivar C-371 Gold were transplanted on April 28 into 9.1 meter plots with three replications. All eight treatments were applied after transplanting on May 1. Foliar treatments were applied as a broadcast spray, while drenches were applied as in Example 6. Acibenzolar-S-methyl is a plant defense activator used to control TSWV in tobacco.
Treatments— • Untreated • Imidacloprid@0.01 g imidacloprid/plant • Imidacloprid@0.015 g Imidacloprid/plant • Prothioconazole@0.0084 g active ingredient/plant • Prothioconazole@0.0084 g active ingredient/plant+Imidacloprid@0.01 g imidacloprid/plant • Prothioconazole@0.0084 g active ingredient/plant+Imidacloprid@0.015 g […] label. • Acibenzolar-S-methyl@2.47 g active ingredient/Ha as a broadcast spray as per label.
TSWV rating—For TSWV incidence determination the percentage of plants with TSWV symptoms (chlorosis and stunting) was determined for the eight treatments as in Example 6.

With `OC(Cc1ccccc1Cl)(Cn1nc[nH]c1=S)C1(Cl)CC1` (centres unmarked) [Prothioconazole, prothioconazole] the “Reduction of TSWV incidence compared to untreated” value ([1]; Carver trial (Example 3), in-furrow treatment) was “not significant”, the “TSWV Incidence (number of symptomatic feet of row per 60 foot plot)” value ([1]; Example 1, Georgia Green, in-furrow 200 g prothioconazole/Ha at planting with foliar maintenance (chlorothalonil, tebuconazole)) was 18 feet of row per 60 foot plot (2×) and 14 feet of row per 60 foot plot and 19 feet of row per 60 foot plot (2×) and 8 feet of row per 60 foot plot and 12 feet of row per 60 foot plot and 20 feet of row per 60 foot plot and the “TSWV Incidence (number of symptomatic feet of row per 60 foot plot)” value ([1]; Example 2, Georgia Green, in-furrow 200 g prothioconazole/Ha at planting with foliar maintenance, adjacent untreated had no foliar maintenance) was 13 feet of row per 60 foot plot and 25 feet of row per 60 foot plot (2×) and 24 feet of row per 60 foot plot and 17 feet of row per 60 foot plot and 18 feet of row per 60 foot plot and 27 feet of row per 60 foot plot and 20 feet of row per 60 foot plot. For the same compound, the “TSWV Incidence (number of symptomatic feet of row per 60 foot plot)” value ([1]; Example 3, Carver, in-furrow 200 g prothioconazole/Ha at planting with foliar maintenance) was 17 feet of row per 60 foot plot and 8 feet of row per 60 foot plot and 19 feet of row per 60 foot plot and 26 feet of row per 60 foot plot and 12 feet of row per 60 foot plot and 16 feet of row per 60 foot plot and 7 feet of row per 60 foot plot and 9 feet of row per 60 foot plot, the “TSWV incidence in percent of row feet with symptoms compared to untreated controls” value ([1]; Georgia Green (Example 1 and 2), in-furrow treatment) was “significantly lower” and the “Percent row feet infected with TSWV” value ([2]; foliar only 200 g ai/Ha x3) was 30.5%. For the same compound, the “Percent row feet infected with TSWV” value ([2]; seed treatment 10 g ai/100 kg seed + in-furrow 200 g ai/Ha + foliar 100 g ai/Ha x3) was 24.0%, the “Number of row feet infected with TSWV compared with foliar only program or untreated” value ([2]; seed treatment, in-furrow, and foliar applications) was “numerically lower” and the “Percent row feet infected with TSWV” value ([3]; foliar only: three chlorothalonil and four prothioconazole 200 g ai/Ha applications) was 16.25%. For the same compound, the “Percent row feet infected with TSWV” value ([3]; seed treatment 10 g ai/100 kg seed + in-furrow 200 g ai/Ha + three chlorothalonil and four prothioconazole 100 g ai/Ha applications) was 10.6%, the “Number of row feet infected with TSWV compared with foliar only program or chlorothalonil maintenance only” value ([3]; seed treatment, in-furrow, and foliar prothioconazole applications (treatment 2)) was “numerically lower” and the “Percent control of incidence of TSWV in bell peppers” value (from here on “Percent control of incidence of TSWV”) ([4]; 21 days after treatment) was 24.90%. For the same compound, the “Percent incidence TSWV in bell peppers” value ([4]; 21 days after treatment) was 18.1%, the “Percent control of incidence of TSWV” value ([4]; 29 days after treatment) was 32.20% and the “Percent incidence TSWV in bell peppers” value ([4]; 29 days after treatment) was 31.8%. The “Percent control of incidence of TSWV” value ([4]; 38 days after treatment) was 12.84%, the “Percent incidence TSWV in bell peppers” value ([4]; 38 days after treatment) was 44.8% and the “Percent control of incidence of TSWV” value ([4]; 47 days after treatment) was 6.44%. The “Percent incidence TSWV in bell peppers” value ([4]; 47 days after treatment) was 49.4%, the “Increase of TSWV level from 38 DAT to 47 DAT” value ([4]; bell pepper, untreated increased by 1.4 percent) was “roughly 4.5%” and the “Percent incidence TSWV in tobacco” value ([5]; 14 days after treatment) was 32.2%. The “Percent incidence TSWV in tobacco” value ([5]; 21 days after treatment) was 35.0% and the “Percent incidence TSWV in tobacco” value ([5]; 38 days after treatment) was 56.7%.
